Laboratory results as given in patent publication US9493446B2, “Orexin receptor antagonists which are [ortho bi-(hetero-)aryl]-[2-(meta bi-(hetero-)aryl)-pyrrolidin-1-yl]-methanone derivatives” (Actelion Pharmaceuticals Ltd, priority 2012, dated 2016).
Where two headings read alike, the source gives them in different places.

Experiments:
[1] = target: human orexin-2 receptor (Homo sapiens (Human), UniProt O43614); assay: Intracellular calcium measurement (FLIPR), CHO cells expressing human orexin-2 receptor, 3 nM orexin-A; format: cell-based; settings: CHO cells expressing human orexin-2 receptor, FLIPR, 3 nM orexin-A; geometric mean if determined several times; read-out: IC50 OX2
Method in brief: (§1)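 Antagonist is added 120 min before agonist. Fluo-4 AM-loaded CHO cells carry human orexin-1 or orexin-2 receptor, and calcium is read by FLIPR.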

[2] = target: orexin-1 (Homo sapiens (Human), UniProt O43613); assay: Intracellular calcium measurement (FLIPR), CHO cells expressing human orexin-1 receptor, 3 nM orexin-A; format: cell-based; settings: read-out: IC50 OX1
Method in brief: as §1

[3] = CHO cells expressing human orexin-1 receptor, FLIPR, 3 nM orexin-A, geometric mean if determined several times

human orexin-2 receptor, sequence (O43614 whole entry): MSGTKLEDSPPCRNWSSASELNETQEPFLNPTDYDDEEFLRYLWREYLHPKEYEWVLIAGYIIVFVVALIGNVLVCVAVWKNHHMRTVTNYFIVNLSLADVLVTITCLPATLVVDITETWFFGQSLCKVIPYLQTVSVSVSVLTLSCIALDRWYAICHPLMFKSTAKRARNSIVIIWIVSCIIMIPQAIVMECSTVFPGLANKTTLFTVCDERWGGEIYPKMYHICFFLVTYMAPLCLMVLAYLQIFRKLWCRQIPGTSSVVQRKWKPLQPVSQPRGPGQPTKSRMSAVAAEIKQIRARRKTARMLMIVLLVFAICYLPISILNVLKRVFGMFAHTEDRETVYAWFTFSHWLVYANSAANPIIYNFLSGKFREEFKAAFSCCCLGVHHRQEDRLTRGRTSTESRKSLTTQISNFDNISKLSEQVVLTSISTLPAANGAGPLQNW
orexin-1, sequence (O43613 whole entry): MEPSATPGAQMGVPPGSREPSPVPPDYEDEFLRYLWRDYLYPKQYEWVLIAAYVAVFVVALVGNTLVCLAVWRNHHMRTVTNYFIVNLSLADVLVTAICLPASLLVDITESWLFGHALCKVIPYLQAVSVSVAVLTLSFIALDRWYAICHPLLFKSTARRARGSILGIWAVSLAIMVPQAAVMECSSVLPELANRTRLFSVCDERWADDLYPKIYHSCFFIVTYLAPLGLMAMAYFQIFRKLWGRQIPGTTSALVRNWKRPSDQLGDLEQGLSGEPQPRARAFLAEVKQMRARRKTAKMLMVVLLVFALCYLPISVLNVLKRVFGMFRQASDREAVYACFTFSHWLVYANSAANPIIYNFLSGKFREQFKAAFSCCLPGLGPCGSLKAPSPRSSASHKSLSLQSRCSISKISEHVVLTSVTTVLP

SMILES	IC50 [1]	IC50 [2, 3]	IC50 [2]
O=C(c1ccccc1-n1nccn1)N1CCC[C@H]1c1nc(-c2ccccc2C(F)(F)F)no1 [compound 178, (2-[1,2,3]Triazol-2-yl-phenyl)-{(S)-2-[3-(2-trifluoromethyl-phenyl)-[1,2,4]oxadiazol-5-yl]-pyrrolidin-1-yl}-methanone]	132 nM	549 nM	–
Cc1ccc(C(=O)N2CCC[C@@]2(C)c2nnc(-c3cccc(Cl)c3C)[nH]2)c(-c2ccccc2)c1 [compound 557]	224 nM	292 nM	–
CCOc1ncccc1-c1noc([C@@H]2CCCN2C(=O)c2cc(OC)c(F)cc2-n2nccn2)n1 [compound 223, {(S)-2-[3-(2-Ethoxy-pyridin-3-yl)-[1,2,4]oxadiazol-5-yl]-pyrrolidin-1-yl}-(4-fluoro-5-methoxy-2-[1,2,3]triazol-2-yl-phenyl)-methanone]	17 nM	253 nM	–
Cc1ccc(-n2nccn2)c(C(=O)N2CCC[C@H]2c2nnc(-c3ccccc3OC(F)(F)F)s2)c1 [Example 458, (5-Methyl-2-[1,2,3]triazol-2-yl-phenyl)-{(S)-2-[5-(2-trifluoromethoxy-phenyl)-[1,3,4]thiadiazol-2-yl]-pyrrolidin-1-yl}-methanone]	112 nM	176 nM	–
Cc1ccc(-n2nccn2)c(C(=O)N2CCC[C@H]2c2nc(-c3ccnc(C)c3)no2)c1 [compound 68, {(S)-2-[3-(2-Methyl-pyridin-4-yl)-[1,2,4]oxadiazol-5-yl]-pyrrolidin-1-yl}-(5-methyl-2-[1,2,3]triazol-2-yl-phenyl)-methanone]	915 nM	6670 nM	–
Cc1c(Cl)cccc1-c1noc([C@@H]2CCCN2C(=O)c2ncsc2-c2cccc(Cl)c2)n1 [compound 94]	201 nM	237 nM	–
CCOc1ncccc1-c1noc([C@@H]2CCCN2C(=O)c2cc(OC)c(Cl)cc2-n2nccn2)n1 [compound 284]	5 nM	–	32 nM
COc1ccccc1-c1noc([C@@H]2CCCN2C(=O)c2cc(Cl)ccc2-n2nccn2)n1 [compound 228]	134 nM	–	272 nM

Continued, in another order:

IC50 [1]	IC50 [2, 3]	SMILES	IC50 [2]
127 nM	49 nM	COc1ccccc1-c1nnc([C@@H]2CCCN2C(=O)c2ccc(C)cc2-n2nccn2)[nH]1 [compound 471, {(S)-2-[5-(2-Methoxy-phenyl)-4H-[1,2,4]triazol-3-yl]-pyrrolidin-1-yl}-(4-methyl-2-[1,2,3]triazol-2-yl-phenyl)-methanone]	–
74 nM	164 nM	Cc1cccc(-c2nc([C@@H]3CCCN3C(=O)c3cc(C)ccc3-n3nccn3)no2)c1 [compound 305, (5-Methyl-2-[1,2,3]triazol-2-yl-phenyl)-[(S)-2-(5-m-tolyl-[1,2,4]oxadiazol-3-yl)-pyrrolidin-1-yl]-methanone]	–
116 nM	171 nM	Cc1nc(C(=O)N2CCC[C@H]2c2nnc(-c3ccccc3OC(F)(F)F)[nH]2)c(-c2ccccc2)s1 [compound 506, (2-Methyl-5-phenyl-thiazol-4-yl)-{(S)-2-[5-(2-trifluoromethoxy-phenyl)-4H-[1,2,4]triazol-3-yl]-pyrrolidin-1-yl}-methanone]	–
1 nM	13 nM	CCOc1ccccc1-c1nc([C@@H]2CCCN2C(=O)c2cc(OC)c(C)cc2-n2nccn2)no1 [compound 309, {(S)-2-[5-(2-Ethoxy-phenyl)-[1,2,4]oxadiazol-3-yl]-pyrrolidin-1-yl}-(5-methoxy-4-methyl-2-[1,2,3]triazol-2-yl-phenyl)-methanone]	–
46 nM	49 nM	COc1c(F)cccc1-c1nnc([C@@H]2CCCN2C(=O)c2cc(C)ccc2-n2nccn2)[nH]1 [compound 497, {(S)-2-[5-(3-Fluoro-2-methoxy-phenyl)-4H-[1,2,4]triazol-3-yl]-pyrrolidin-1-yl}-(5-methyl-2-[1,2,3]triazol-2-yl-phenyl)-methanone]	–
